{"source": "paper PMC8646019", "about": "“Azvudine is a thymus-homing anti-SARS-CoV-2 drug effective in treating COVID-19 patients” (Signal Transduction and Targeted Therapy, 2021)", "system": "SARS-CoV-2", "assay": "SARS-CoV-2 infected rhesus macaques treated with FNC (viral load, blood tests, histology, X-ray)", "format": "in vivo", "experimental": "RM monkeys were used to learn whether FNC could inhibit SARS-CoV-2 in vivo. In this experiment, eight monkeys were first infected with SARS-CoV-2 using the protocol established previously with an infection dose of 10^6 pfu per monkey.[18] Among the eight animals, four were untreated (as vehicle control; two male and two female) and four were treated with FNC (0.07 mg/kg, qd, oral; two male and two female) 12 h post-infection. The treatment continued for 7 days from Day 1 to Day 7. The experiment was terminated on Day 8 after viral infection. Clinical manifestations, blood indications, and viral load in swabs and blood samples was monitored during the course, and organs were examined after euthanasia at 8 dpi. The experimental protocol is shown in Supplementary Fig. 5.\nFig. 3 FNC inhibited SARS-CoV-2 and treated COVID-19 in vivo. Eight RM monkeys were inoculated with SARS-CoV-2, followed by vehicle or FNC treatment 12 h post infection and continued for 7 days (see Materials and methods). […] The regions of interest (ROI) are boxed in white, and their magnified photos are shown below. Scale bars, 500 µm (up) and 20 µm (below). c White blood cells (WBC), neutrophil granulocytes (NG), monocytes (MC), and platelets basically remained stable by FNC after SARS-CoV-2 infection. d FNC increased the percent of lymphocytes, alleviated CRP production, and protected the heart and liver functions. Data are presented as mean ± SEM (n = 4); *p < 0.05, infected monkeys in FNC group vs. infected monkeys in the untreated group, by Mann–Whitney U test. CRP C reaction protein, AST aspartate aminotransferase TEXT PRINTED IN THE PICTURE: (a) FNC: Lung Viral load (copies /g): ND (17031); Lung Viral load (copies /g): ND (17374); Thymus Viral load (copies /g): ND (17017); Thymus Viral load (copies /g): ND (17031); Thymus Viral load (copies /g): ND (17368); Thymus Viral load (copies /g): ND (17374) DOUBTS OF THE COPYIST ABOUT THIS PICTURE: Panel a: the only printed results are \"ND\" labels over single animal numbers. The red ones (FNC group) are given. The black ND labels of the untreated group (Lung 17032; Thymus 17032, 17041) are left out because no substance was given. / Panel d: 0.083 printed in the CRP and AST plots is taken as a p value and left out.\nThe rhesus macaques’ experiment was done by following the method described before^1,2. Briefly, healthy rhesus macaques (4 male and 4 female, 3-4 years old) were used for the study. SARS-CoV-2 was from the Center of Diseases Control, Guangdong, China, and amplified in the Vero-E6 cells. Animal groups and experimental schedules were outlined in Fig S4. We inoculated rhesus macaques with 10^6 pfu/ml SARS-CoV-2 intratracheally (0.5ml) and intranasally (0.5ml). FNC (0.07mg/kg, qd, orally) was given 12 h after viral inoculation and continued for 7 days. The animals were monitored daily for physical examination. Chest X-ray radiograph of the anaesthetized monkeys was done with 55-75v and 8-12.5mA with the Mobile digital medical X-ray photography system (MobileCooper, Browiner China).\nQuantification of viral genome in swabs and tissue samples was done as described before^1. Viral genome copy in samples were quantified with real time RT-PCR, using TaqMan Fast Virus 1-Step Master Mix (ThermoFisher, US) and conducted on the CFX384 Touch Real-Time PCR Detection System (Biorad, US). Purified RNA of SARS-CoV-2 served as a standard curve. The operation conditions of RT-PCR were set as following: 25℃ for 2min, 50℃ for 15min, 95℃ for 2min, then 40 cycles at 95℃ 5sec and 60℃ 31sec. Primers/probe specific for the NP gene were synthesized based on sequences from China CDC: Target-2-F:GGGGAA […],\nBy the end of the experiment, major organs of the monkeys were taken and checked with naked eye examination. Tests for blood biochemistry and hematology indexes, including lymphocyte analysis and organ function assays, were done based on previous reports^1,2. […]", "key": {"[1]": {"details": "FNC-treated monkeys vs untreated"}}}
{"smiles": "[N-]=[N+]=N[C@]1(CO)O[C@@H](n2ccc(N)nc2=O)[C@@H](F)[C@@H]1O", "note": "[FNC, 2′-deoxy-2′-β-fluoro-4′-azidocytidine]", "values": [{"measurement": "CK and AST levels", "setting": "[1]", "value": "decreased CK and AST levels, though insignificantly"}, {"measurement": "body temperature and body weight changes after SARS-CoV-2 infection", "setting": "[1]", "value": "not different"}, {"measurement": "lesions in the lung (HE staining)", "setting": "RM monkeys, FNC 0.07 mg/kg qd oral vs untreated", "value": "reduced the lesions substantially"}, {"measurement": "viral load in nasal swabs, blood, lungs and thymus", "setting": "RM monkeys, FNC 0.07 mg/kg qd oral, 7 days, vs untreated", "value": "significantly reduced viral load"}, {"measurement": "ground-glass opacities in chest X-ray", "setting": "RM monkeys, FNC 0.07 mg/kg, qd, orally", "value": "lessened ground-glass opacities"}, {"measurement": "viral load in the thymus", "setting": "four virus (+) monkeys treated with FNC, termination of the experiment", "value": "negative"}]}
